Data reported in EP4775567A1, “IONIZABLE CATIONIC LIPID COMPOUNDS AS WELL AS PREPARATION METHOD THEREFOR AND USE THEREOF” (Scindy Pharmaceutical (Suzhou) Co., Ltd, priority 2023, dated 2025).

Assays:
[1] = Particle size and polydispersity index (PDI) by dynamic light scattering; format: physicochemical; conditions: luciferase mRNA lipid nanoparticles prepared from the compound; 25°C
Method: (§1) Luciferase mRNA was diluted in a 10-100 mM sodium citrate buffer solution at pH 4.0, with the concentration of the mRNA solution being 135 µg/ml. A mixed lipid ethanol solution was prepared at a molar ratio of ionizable cationic lipid compound (each exemplary compound) : DSPC: cholesterol : 2-[(polyethylene glycol)-2000]-N,N-ditetradecylacetamide (ALC-0159) of 50:10:38.5:1.5. The mRNA solution and the mixed lipid solution were mixed at a volume ratio of 3:1 in a nanodrug preparation device, followed by ultrafiltration to obtain luciferase mRNA lipid nanoparticles.
(§2) • 1. Determination of particle size and polydispersity index (PDI): The average particle size and PDI of the nanoparticle sample solutions in the examples were determined by dynamic light scattering using Malvern ZetaSizer Nano ZS90. The measurement angle was 90°, the refractive index of the dispersant was 1.330, and the test temperature was 25°C. • 2. Zeta potential: The Zeta potential of the nanoparticle sample solutions in the examples was determined by electrophoretic light scattering (ELS) using Malvern ZetaSizer Nano ZS90. Refractive index of the dispersant: 1.330, Test temperature: 25°C. • 3. Encapsulation Rate: The Encapsulation Rate of luciferase mRNA in lipid nanoparticles was determined using a Quant-it Ribogreen RNA quantitation kit (ThermoFisher Scientific, UK) in accordance with the manufacturer's instructions.

female Balb/c mice = experiment: In vivo transfection efficiency and safety of luciferase mRNA lipid nanoparticles (whole-body live imaging); conditions: tail vein injection, single dose 0.3 mpk, 6 h after administration
Method: as §1
6-8 week-old female Balb/c mice were used to evaluate the in vivo transfection efficiency and safety of lipid nanoparticle compositions prepared from each exemplary compound. The lipid nanoparticles prepared from each exemplary compound were administered by tail vein injection at a single dose of 0.3 mpk. At specific time points after administration (e.g., 3 h, 6 h), live imaging of the animals was performed using a PerkinElmer small animal imaging system to determine the bioluminescent signal. The whole-body live imaging of mice at 3 h/6 h after intravenous administration of luciferase mRNA lipid nanoparticles prepared from Compound 1008 is shown in Fig. 2. […] Table 3 Summary of in vitro/in vivo Activity Evaluation of Lipid Nanoparticles Prepared from Compounds

[2] = Zeta potential by electrophoretic light scattering; format: physicochemical; conditions: luciferase mRNA lipid nanoparticles prepared from the compound; 25°C
Method: as §1, §2

[3] = Encapsulation Rate of luciferase mRNA in lipid nanoparticles (Quant-it Ribogreen RNA kit); format: physicochemical; conditions: luciferase mRNA in lipid nanoparticles prepared from the compound
Method: as §1, §2

[4] = Apparent pKa of blank lipid nanoparticles by TNS fluorescence; format: physicochemical; conditions: compound:DSPC:cholesterol:ALC-0159 50:10:38.5:1.5, pH 2 to 11
Method: The apparent pKa of lipid nanoparticles is correlated with the efficacy of lipid nanoparticles in delivering nucleic acids (see Jayaraman et al., Angewandte Chemie, International Edition (2012), 51(34), 8529-8533; Semple et al., Nature Biotechnology 28, 172-176 (2010)). The apparent pKa of nanoparticles prepared from different lipid compounds was determined using fluorescence based on 2-(p-toluidino)-6-naphthalenesulfonic acid (TNS). The fluorescent probe has no fluorescence in water but […] emits fluorescence when bound to lipid membranes. Blank lipid nanoparticles were prepared at a molar ratio of ionizable cationic lipid compound (each exemplary compound) : DSPC : cholesterol : 2-[(polyethylene glycol)-2000]-N,N-ditetradecylacetamide (ALC-0159) of 50:10:38.5:1.5. They were diluted in different pH buffer solutions having a pH ranging from 2 to 11. An aqueous TNS solution was added and mixed. Then, the mixtures were added to a 96-well plate (black bottom), respectively. Detection was performed with excitation wavelength at 325 nm and the emission wavelength at 435 nm, with top detection. Measurement was performed 10 times for each well, and the fluorescence intensity was recorded. A pH-fluorescence intensity curve was plotted to determine the apparent pKa.

HEK 293T cells = experiment: In vitro transfection efficiency of luciferase mRNA lipid nanoparticles (luciferase activity); format: cell-based; conditions: 100 ng dose, 96-well plate, 24 h incubation; luciferase mRNA lipid nanoparticles
Method: as §1
HEK-293T cells were used to evaluate the in vitro transfection efficiency of lipid nanoparticle compositions prepared from each exemplary compound. HEK293T cells were routinely cultured in DMEM + 10% FBS medium to ensure the cells were in the logarithmic growth phase. One day before transfection, the cells were seeded into a 96-well culture plate at an appropriate cell density and grown overnight. At the time of transfection, the cell confluency needed to reach 70-90%. The lipid nanoparticle compositions prepared from each exemplary compound were diluted into 4 different dose concentrations with DMEM and added to the 96-well cell culture plate, resulting in final concentrations of 400 ng, 200 ng, 100 ng and 50 ng per well, respectively. luciferase plasmid transfected using Lipofectamine 2000 was used as the positive control (PC). After incubation for 24 h in a 5% CO2 incubator at 37°C, the substrate was added to the wells, and the luciferase activity was determined using a microplate reader. […] The luciferase activity of the luciferase mRNA lipid nanoparticles prepared from Compound 1005 in HEK293T cells is shown in Fig. 1.

SMILES	Particle Size [1] [nm]	Polydispersity Index (PDI) [1]	Zeta Potential [2] [mV]	Encapsulation Rate [3] [%]	Apparent pKa [4]	Mouse Whole-Body Average Fluorescence Signal (female Balb/c mice)	HEK 293T Cell Luciferase Activity (HEK 293T cells)
CCCCCCCCCCCCCCCC(CC)C(=O)OCC(COC(=O)C(CC)CCCCCCCCCCCCCCC)(COC(=O)C(CC)CCCCCCCCCCCCCCC)NCCC(=O)NCCN(CCCC)CCCC (stereo not drawn) [Compound 1013]	82.41	0.123	-2.23	90.7	5.75	1.69×10^4 p/s/cm^2/sr	9.87×10^4 RLU
CCCCCCCCCC(CCCCCCCC)C(=O)OCC(COC(=O)C(CCCCCCCC)CCCCCCCCC)(COC(=O)C(CCCCCCCC)CCCCCCCCC)NCCOCCN(C)C (stereo not drawn) [Compound 1059]	72.71	0.067	-10.0	93.0	5.18	4.94×10^5 p/s/cm^2/sr	1.32×10^4 RLU
CCCCCCCCCCCCCCCC(CC)C(=O)OCC(COC(=O)C(CC)CCCCCCCCCCCCCCC)(COC(=O)C(CC)CCCCCCCCCCCCCCC)NC(=O)CCCCN(C)CCCCO (stereo not drawn) [Compound 1113]	58.00	0.082	4.57	100.3	5.91	3.56×10^7 p/s/cm^2/sr	3.43×10^4 RLU
CCCCCCCCCC(CCCCCCCC)C(=O)OCC(COC(=O)C(CCCCCCCC)CCCCCCCCC)(COC(=O)C(CCCCCCCC)CCCCCCCCC)NCCC(=O)NCCN(C)CCCCO (stereo not drawn) [Compound 1118]	108.1	0.051	-3.96	95.9	5.11	1.77×10^8 p/s/cm^2/sr	1.48×10^4 RLU
CCCCCCCCCC(CCCCCCCC)C(=O)OCC(COC(=O)C(CCCCCCCC)CCCCCCCCC)(COC(=O)C(CCCCCCCC)CCCCCCCCC)NCCCCCCN(C)CCCCO (stereo not drawn) [Compound 1120]	98.18	0.049	-6.05	97.2	6.14	3.52×10^8 p/s/cm^2/sr	2.35×10^4 RLU

More lines, main results first:

Particle Size [1] [nm]	Polydispersity Index (PDI) [1]	Zeta Potential [2] [mV]	Encapsulation Rate [3] [%]	Apparent pKa [4]	SMILES	Mouse Whole-Body Average Fluorescence Signal (female Balb/c mice)	HEK 293T Cell Luciferase Activity (HEK 293T cells)
67.63	0.126	2.60	92.7	5.23	CCCCCCCCCCCCCC(CC)C(=O)OCC(COC(=O)C(CC)CCCCCCCCCCCCC)(COC(=O)C(CC)CCCCCCCCCCCCC)NCCC(=O)NCCN(C)C (stereo not drawn) [Compound 1009]	5.99×10^4 p/s/cm^2/sr	6.15×10^7 RLU
60.38	0.193	2.31	91.8	6.30	CCCCCCCCCCCCCCCC(CC)C(=O)OCC(COC(=O)C(CC)CCCCCCCCCCCCCCC)(COC(=O)C(CC)CCCCCCCCCCCCCCC)NCCC(=O)NCCN(CC)CC (stereo not drawn) [Compound 1011]	1.29×10^5 p/s/cm^2/sr	8.22×10^7 RLU
80.07	0.051	0.811	87.4	6.05	CCCCCCCCCCCCCCCC(CC)C(=O)OCC(COC(=O)C(CC)CCCCCCCCCCCCCCC)(COC(=O)C(CC)CCCCCCCCCCCCCCC)NCCC(=O)NCCN(CCC)CCC (stereo not drawn) [Compound 1012]	2.02×10^5 p/s/cm^2/sr	6.61×10^5 RLU
77.94	0.057	-3.71	90.6	5.41	CCCCCCCCCCCCCCCC(CC)C(=O)OCC(COC(=O)C(CC)CCCCCCCCCCCCCCC)(COC(=O)C(CC)CCCCCCCCCCCCCCC)NCCC(=O)OCCN(C)C (stereo not drawn) [Compound 1029]	3.27×10^4 p/s/cm^2/sr	8.23×10^4 RLU
